Consider six molecules from paper PMC4476818, “Characterization of uronate dehydrogenases catalysing the initial step in an oxidative pathway” (Microbial Biotechnology, 2015).

One data set concerns T1, UdhOg.
T1 construct: gene udh; N-terminal His-tag, tag kept; wild-type gene from genomic DNA, E. coli BL21(DE3); start MKKIVLT (from primer)
Description: NADH formation at […] nm. The class given is biochemical, Oceanicola granulosus.

The next data set concerns T2, UdhFp.
T2 construct: gene udh; N-terminal His-tag, tag kept; synthetic codon-optimized gene, E. coli BL21(DE3); start MLEKLLI (from primer)
Kind of data set: NADH formation at […] nm. The class given is biochemical, Fulvimarina pelagi.

Substrate in data set [1]: NC(=O)c1ccc[n+]([C@@H]2O[C@H](COP(=O)(O)OP(=O)(O)OC[C@H]3O[C@@H](n4cnc5c(N)ncnc54)[C@H](O)[C@@H]3O)[C@@H](O)[C@H]2O)c1
Description: purified protein. It counts as biochemical, Agrobacterium fabrum. Conditions: 50 mM potassium phosphate pH 8.0, 37°C, uronic acid co-substrate, varied: cofactor.

Substrate in data set [2]: NC(=O)c1ccc[n+]([C@@H]2O[C@H](COP(=O)(O)OP(=O)(O)OC[C@H]3O[C@@H](n4cnc5c(N)ncnc54)[C@H](O)[C@@H]3O)[C@@H](O)[C@H]2O)c1
Kind of data set: purified protein. It counts as biochemical, Pseudomonas syringae group genomosp. 3. The conditions noted are these: 50 mM potassium phosphate pH 8.0, 37°C, uronic acid co-substrate, varied: cofactor.

Setting [3] is: 50 mM Tris-HCl pH 8.0, 37°C, co-substrate NAD+, read-out: Tris-Buffer / Kinetic parameters / Km.
Where [4] appears, read: 50 mM potassium phosphate pH 8.0, 37°C, uronic acid co-substrate, read-out: KPi-Buffer / Kinetic parameters / Km.

Like-named read-outs stand apart in the source and are kept apart here.

Consider `O=C(O)[C@H]1OC(O)[C@H](O)[C@@H](O)[C@H]1O` (stereo partly shown) [Galacturonate], for which the Km in the data set with UdhOg (setting [3]) amounted to 55000 ± 3000 µM; in the data set with UdhFp (setting [3]), 20 µM.
As to `O=C(O)[C@H]1OC(O)[C@@H](O)[C@@H](O)[C@@H]1O` (stereo partly shown) [Mannuronate], the Km with UdhFp (setting [3]) came out at 6400 ± 130 µM.
As for `NC(=O)c1ccc[n+]([C@@H]2O[C@H](COP(=O)(O)OP(=O)(O)OC[C@H]3O[C@@H](n4cnc5c(N)ncnc54)[C@H](O)[C@@H]3O)[C@@H](O)[C@H]2O)c1` [NAD^+], the Km in the data set with UdhOg (setting [4]) was determined as 400 ± 100 µM; in the data set on UdhFp (setting [4]), 200 ± 20 µM.
With `O=C(O)[C@H]1OC(O)[C@H](O)[C@@H](O)[C@@H]1O` (stereo partly shown) [Glucuronate], the Km with UdhOg (setting [3]) was determined as 64000 ± 3000 µM; with UdhFp (setting [3]), 200 ± 30 µM.

B1: UdhAt (Agrobacterium fabrum str. C58) (protein)
chain: MKRLLVTGAAGQLGRVMRERLAPMAEILRLADLSPLDPAGPNEECVQCDLADANAVNAMVAGCDGIVHLGGISVEKPFEQILQGNIIGLYNLYEAARAHGQPRIVFASSNHTIGYYPQTERLGPDVPARPDGLYGVSKCFGENLARMYFDKFGQETALVRIGSCTPEPNNYRMLSTWFSHDDFVSLIEAVFRAPVLGCPVVWGASANDAGWWDNSHLGFLGWKPKDNAEAFRRHITETTPPPDPNDALVRFQGGTFVDNPIFKQS
notes: N-terminal His-tag, tag kept; synthetic codon-optimized gene, E. coli BL21(DE3)
As to B1, in “purified protein [1]”, the Km was 100 ± 0 µM; the kcat (in general, the number of substrate molecules converted per active site and unit of time at saturation) is 144 ± 14 s⁻¹; the specificity constant (kcat/Km) (in general, the second-order rate constant that governs catalysis at low substrate concentration) worked out at 1.08e+06 M⁻¹ s⁻¹.

B2: UdhPs (Pseudomonas syringae pv. tomato str. DC3000) (protein)
chain: MASAHTTQTPFNRLLLTGAAGGLGKVLRETLRPYSHILRLSDIAEMAPAVGDHEEVQVCDLADKDAVHRLVEGVDAILHFGGVSVERPFEEILGANICGVFHIYEAARRHGVKRVIFASSNHVIGFYKQNETIDAHSPRRPDSYYGLSKSYGEDMASFYFDRYGIETVSIRIGSSFPEPQNRRMMSTWLSFDDLTRLLERALYTPDVGHTVVYGVSDNKTVWWDNRFASKLDYAPKDSSEVFRAKVDAQPMPADDDPAMVYQGGAFVASGPFGDK
notes: as for B1
On to B2, for which, in the data set “purified protein [2]”, the Km came out at 200 ± 30 µM, the kcat was found to be 215 ± 12 s⁻¹ and the kcat/Km was 1.26e+06 M⁻¹ s⁻¹.
